From US20230279002A1, “Polymorphs of Crystalline Forms of 3,10-dimethoxy-5,8,13,13a-tetrahydro-6H-isoquinolino[3,2-a]isoquinolin-9-yl 3-fluorobenzenesulfonate and Salts Thereof” (CVI Pharmaceuticals Limited, priority 2020, published 2023)

Legend:
Format in all cases: physicochemical
[1] = Solution stability in 0.1 N HCl, pH 4.5 buffer and pH 6.8 buffer at 25° C. and 37° C., HPLC; settings: summary of the Examples
Description: Solution stability: A stock solution of compound (1.0 mg/mL) in MeOH was diluted with 0.1 N HCl, pH 4.5 buffer (acetate) and pH 6.8 buffer to reach constant ionic strength of 0.15 M and the same final concentration (50 μg/mL, 40% MeOH).
A stock solution of 1b and 3b (1.0 mg/mL) in MeOH was diluted with pH 6.8 buffer to reach constant ionic strength of 0.15M and the same final concentration (25 μg/mL, 40% […]).
The solutions were stored at 25° C. and 37° C.

[2] = TGA (Thermal Gravimetric Analysis) weight loss; settings: for TGA weight loss (in words): room temperature to 120° C.
Description: TGA (Thermal Gravimetric Analysis): Samples of compounds (4˜6 mg) were weighed into the pan, and heated under nitrogen purge using a ramp rate of 20° C./min over the range of 30° C.˜350° C.

[3] = DVS (Dynamic Vapor Sorption) moisture sorption/desorption, hygroscopicity classification; settings: 25 °C; for Change In Mass (%) - ref, Desorption / Change In Mass (%) - ref, Sorption / Change In Mass (%) - ref, Hysteresis: Cycle 1
Description: DVS (Dynamic Vapor Sorption): Around 10-20 mg of samples were used to test its moisture sorption/desorption profiles at 25° C. under 0%˜95%˜0% relative humidity (RH) cycle using dm/dt: 0.01%/min equilibrium and a measurement step of 5% RH.
Hygroscopicity Classification: Typical %-moisture gain as a function of increased RH was determined by DVS. Samples went through a dynamic test isothermally at 25° C. The test was divided into 2 processes, one was absorption process, the other was desorption process. RH ranged from 0% to 95% with 5% RH for each step, and when dm/dt<=0.01%, it was assumed the water sorption/desorption equilibrium is reached.

[4] = Solid stability at 40° C./0% RH (closed) and 40° C./75% RH (open), HPLC; settings: for 0 day % remaining / 5 day % remaining / 10 day % remaining: solid
Description: (§1) Solid stability: 5 mg of 2a was weighed into scintillation vials sealed properly and stored at 40° C./0% RH(closed), 40° C./75% RH(open) under dark conditions to avoid the effect of light on stability. Samples were collected at day 0, 5 and 10 and analyzed by HPLC.
Solid stability: 5 mg of compound was weighed into vials sealed properly and stored at 40° C./0% RH (closed), 40° C./75% RH (open) under dark conditions to avoid the effect of light. Samples were analyzed by HPLC at days 0, 7, and 21.
as §1, with “stability of compound 1a:” for “stability:”, “compound were accurately” for “of 2a was”, “condition” for “conditions”, “should be” for “were”, “10 days” for “10”

- Stability compared with other polymorphs (summary) [1]: most stable of the polymorphs
- Temperature until which there is no weight loss ([2]; DSC and TGA): about 150 °C
- TGA weight loss (in words) [2]: almost no weight loss
- TGA weight loss (in words) ([2]; listed as Hydrochloride salt of compound 1a): almost no weight loss
- Hygroscopicity classification by DVS [3]: non-hygroscopic
- Change In Mass (%) - ref, Desorption ([3]; Target RH 0.0 %): −0.00505%
- Change In Mass (%) - ref, Sorption ([3]; Target RH 0.0 %): 0.00011%
- Change In Mass (%) - ref, Desorption ([3]; Target RH 5.0 %): −0.0028%
- Change In Mass (%) - ref, Hysteresis ([3]; Target RH 5.0 %): −0.00426%
- Change In Mass (%) - ref, Sorption ([3]; Target RH 5.0 %): 0.00146%
- Change In Mass (%) - ref, Desorption ([3]; Target RH 10.0 %): −0.00101%
- Change In Mass (%) - ref, Hysteresis ([3]; Target RH 10.0 %): −0.0046%
- Change In Mass (%) - ref, Sorption ([3]; Target RH 10.0 %): 0.00359%
- Change In Mass (%) - ref, Desorption ([3]; Target RH 15.0 %): 0.00000%
- Change In Mass (%) - ref, Hysteresis ([3]; Target RH 15.0 %): −0.00527%
- Change In Mass (%) - ref, Sorption ([3]; Target RH 15.0 %): 0.00527%
- Change In Mass (%) - ref, Desorption ([3]; Target RH 20.0 %): 0.00123%
- Change In Mass (%) - ref, Hysteresis ([3]; Target RH 20.0 %): −0.0055%
- Change In Mass (%) - ref, Sorption ([3]; Target RH 20.0 %): 0.00673%
- Change In Mass (%) - ref, Desorption ([3]; Target RH 25.0 %): 0.00247%
- Change In Mass (%) - ref, Hysteresis ([3]; Target RH 25.0 %): −0.00505%
- Change In Mass (%) - ref, Sorption ([3]; Target RH 25.0 %): 0.00752%
- Change In Mass (%) - ref, Desorption ([3]; Target RH 30.0 %): 0.00292%
- Change In Mass (%) - ref, Hysteresis ([3]; Target RH 30.0 %): −0.00527%
- Change In Mass (%) - ref, Sorption ([3]; Target RH 30.0 %): 0.00819%
- Change In Mass (%) - ref, Desorption ([3]; Target RH 35.0 %): 0.00393%
- Change In Mass (%) - ref, Hysteresis ([3]; Target RH 35.0 %): −0.00449%
- Change In Mass (%) - ref, Sorption ([3]; Target RH 35.0 %): 0.00841%
- Change In Mass (%) - ref, Desorption ([3]; Target RH 40.0 %): 0.0055%
- Change In Mass (%) - ref, Hysteresis ([3]; Target RH 40.0 %): −0.00314%
- Change In Mass (%) - ref, Sorption ([3]; Target RH 40.0 %): 0.00864%
- Change In Mass (%) - ref, Desorption ([3]; Target RH 45.0 %): 0.00673%
- Change In Mass (%) - ref, Hysteresis ([3]; Target RH 45.0 %): −0.00202%
- Change In Mass (%) - ref, Sorption ([3]; Target RH 45.0 %): 0.00875%
- Change In Mass (%) - ref, Desorption ([3]; Target RH 50.0 %): 0.00763%
- Change In Mass (%) - ref, Hysteresis ([3]; Target RH 50.0 %): −0.00191%
- Change In Mass (%) - ref, Sorption ([3]; Target RH 50.0 %): 0.00954%
- Change In Mass (%) - ref, Desorption ([3]; Target RH 55.0 %): 0.00853%
- Change In Mass (%) - ref, Hysteresis ([3]; Target RH 55.0 %): −0.00123%
- Change In Mass (%) - ref, Sorption ([3]; Target RH 55.0 %): 0.00976%
- Change In Mass (%) - ref, Desorption ([3]; Target RH 60.0 %): 0.00909%
- Change In Mass (%) - ref, Hysteresis ([3]; Target RH 60.0 %): −0.0009%
- Change In Mass (%) - ref, Sorption ([3]; Target RH 60.0 %): 0.00998%
- Change In Mass (%) - ref, Desorption ([3]; Target RH 65.0 %): 0.00954%
- Change In Mass (%) - ref, Hysteresis ([3]; Target RH 65.0 %): −0.00056%
- Change In Mass (%) - ref, Sorption ([3]; Target RH 65.0 %): 0.0101%
- Change In Mass (%) - ref, Desorption ([3]; Target RH 70.0 %): 0.01066%
- Change In Mass (%) - ref, Hysteresis ([3]; Target RH 70.0 %): 0.00000%
- Change In Mass (%) - ref, Sorption ([3]; Target RH 70.0 %): 0.01066%
- Change In Mass (%) - ref, Desorption ([3]; Target RH 75.0 %): 0.01234%
- Change In Mass (%) - ref, Hysteresis ([3]; Target RH 75.0 %): 0.00056%
- Change In Mass (%) - ref, Sorption ([3]; Target RH 75.0 %): 0.01178%
- Change In Mass (%) - ref, Desorption ([3]; Target RH 80.0 %): 0.01324%
- Change In Mass (%) - ref, Hysteresis ([3]; Target RH 80.0 %): 0.00034%
- Change In Mass (%) - ref, Sorption ([3]; Target RH 80.0 %): 0.0129%
- Change In Mass (%) - ref, Desorption ([3]; Target RH 85.0 %): 0.01481%
- Change In Mass (%) - ref, Hysteresis ([3]; Target RH 85.0 %): 0.0009%
- Change In Mass (%) - ref, Sorption ([3]; Target RH 85.0 %): 0.01391%
- Change In Mass (%) - ref, Desorption ([3]; Target RH 90.0 %): 0.01773%
- Change In Mass (%) - ref, Hysteresis ([3]; Target RH 90.0 %): 0.00146%
- Change In Mass (%) - ref, Sorption ([3]; Target RH 90.0 %): 0.01627%
- Change In Mass (%) - ref, Desorption ([3]; Target RH 95.0 %): 0.02076%
- Change In Mass (%) - ref, Sorption ([3]; Target RH 95.0 %): 0.02076%
- moisture picked up (DVS) ([3]; at 95% RH): about 0.02%
- Solid-state stability (HPLC) ([4]; 40° C./0% RH (closed) and 40° C./75% RH (open), dark, up to 10 days): substantially stable
- 0 day % remaining ([4]; 40° C. (0% RH, closed)): 99.65%
- 5 day % remaining ([4]; 40° C. (0% RH, closed)): 101.65%
- 10 day % remaining ([4]; 40° C. (0% RH, closed)): 100.85%
- 0 day % remaining ([4]; 40° C./75% RH (open)): 99.65%
- 5 day % remaining ([4]; 40° C./75% RH (open)): 100.66%
- 10 day % remaining ([4]; 40° C./75% RH (open)): 101.31%
Compound: COc1ccc2c(c1)CCN1Cc3c(ccc(OC)c3OS(=O)(=O)c3cccc(F)c3)C[C@H]21 [Compound 2a]
